Measured values published in patent US20090074885A1, “Reversible Hydrophobic Modification of Drugs for Improved Delivery to Cells” (Roche Madison Inc., priority 2003, published 2009).
Read-outs that look alike come from different tables or passages of the source.

How the values were obtained:
[1] = system: B16 murine melanoma cells; test: CellTiter-Glo luminescent cell viability assay; assay type: cell-based; conditions: 10 min drug solution exposure, 3 h in media, 24 h culture; up to 112 μl delivery solution per well
Method: Cells were seeded at 1×10^4 cells/well in 100 μl of media into 96-well plates on day 0 and cultured for 24 h prior to addition of drug. […] Following 10 min of drug solution exposure, 100 μl of fresh media was added to each well and incubated for 3 h. Drug-containing media was replaced with 100 μl of fresh media and cultured for and additional 24 h.

[2] = Dynamic light scattering particle size; assay type: physicochemical; conditions: following mixing with ITG through mixing chamber
Method: (§1) Light Scattering analysis of prodrugs. Particle size was determined by dynamic light scattering on a Zeta Plus (Zeta Potential Analyzer, Brookhaven Instrument Corporation, λ 533 nm, 90°), and results are reported as the size of the most abundant particle (range of particle sizes, counts sec^−1). Fluorescent compounds were also analyzed for particles qualitatively, by measuring for light scattering on a Cary Eclipse Fluorescence Spectrophotometer (Varian Inc.), with λex=λem (300-800 nm, 90° detection). The presence of particles in solution results in an increase in signal detection at 90°. PI and RRH-PI prodrugs were 7.48 mM in DMSO. Melphalan and V were 50 mM in DMSO. The drug/prodrug solutions were mixed and diluted with ITG through the mixing chamber (40 μl OS and 400 μl ITG), and analyzed immediately.

[3] = Hydrolysis of V monitored by reaction of liberated melphalan with fluorescamine; assay type: physicochemical; conditions: pH 6.0; for Half-life: extrapolated to pure buffer (100 mol % H2O)
Method: (§2) Analysis of prodrug lability. The prodrugs were tested for their rate of hydrolysis at pH 6.0, 7.2 and 8.5 using fluorescent spectroscopy. Lability studies for C12CON-PI and RRH-PI (rapidly reversible hydrophobic-PI) derivatives were conducted on a Cary Eclipse Fluorescence Spectrophotometer (Varian Inc.).
Alternatively, to solutions of fluorescamine (857 μM in DMSO) were added various amounts of buffer (20 μL, 30 μL, 40 μL, 50 μL, and 70 μL of 100 mM MES buffer, pH 6.0) followed by melphalan or V (249 μM final concentration in DMSO). The fluorescence of the solution (λex=380 nm, λem=464 nm, excitation and emission slit width=5 nm, and emission PMT=600V) was assayed as a function of time (40 min). At each buffer concentration the reaction of fluorescamine and melphalan was more rapid than hydrolytic breakdown of V.
(§3) The resulting curves were normalized for intensity and fit to an exponential equation (Origin) to determine kdetermined for each solution. The kdetermined for each compound at appropriate pH were plotted against the mol % of H2O, and the best fit line was solved for kbuffer for 100 mol % H2O. These derived kbuffer values were used to determine the half-life of the prodrug in pure buffer according to the equation t1/2=1n2/k.

[4] = system: SK-OV-3 (human ovarian carcinoma); test: WST cytotoxicity assay, SK-OV-3; assay type: cell-based
Method: (§4) Antiproliferative/Cytotoxic in vitro studies on PI, RRH-PI prodrugs, melphalan, and C12PMMA-melphalan. In vitro cytotoxicity testing was conducted on Hepa 1-6 (mouse hepatoma), SK-OV-3 (human ovarian carcinoma), and MC38 (mouse colon carcinoma) cells using a tetrazolium based assay (WST, Dojindo Molecular Technologies). For the WST assay, Hepa 1-6 (2.0×10^5 cells well), SK-OV-3 (7.5×10^5 cells well), and MC38 (8.5×10^5 cells well) were seeded in 1000 μL media into 12-well plates 24 h prior to testing (starting confluency ˜50%). Following removal of media, drug/prodrug solution was added drop-wise to quadruplicate wells, using the mixing chamber. Effective drug concentrations were calculated from the amount of drug added in the total volume of OS and aqueous solution. Following 4 min of drug solution exposure, the solution was removed, and 1000 μl fresh complete media was added to each well. After the cells were incubated for 24-48 h, WST-1 (20 μl of a 5 mM solution in PBS) and N-methylphenazonium methyl sulfate (PMS, 20 μl 0.2 mM solution in PBS) were added and the cells were incubated for 1-4 h. For testing with MC38 cells, the amounts of WST-1 and PMS were doubled. Following incubation, 100 μl of sample was transferred to quadruplicate wells on a 96-well plate, and the absorbance (438 nm) values were measured on a SPECTRAmax Plus^384 microplate spectrophotometer (Molecular Devices Corporation). Data represents the mean A438 values of 16 wells with standard deviation, corrected for media contribution, and normalized against cells in media with no drug/prodrug treatment (reported as % cell viability±standard deviation).
(§5) The concentration of drug (μM) that is required for 50% inhibition in vitro is reported as the IC50. The reported values were calculated from the best fit line (Excel) for a plot of effective drug concentration against % cell viability, and include the r^2 value. The reported IC50 values for multiple RRH-PI plots are reported as IC50 (μM)±standard deviation.

SK-OV-3 cells = test: Uptake of PI mixed with hydrophobic derivative (membrane damage test), SK-OV-3; assay type: cell-based, human; conditions: compared to cells treated with PI alone
Method: (§6) For experiments conducted with IV, the cells were plated on 6-well plates with cover slips. Following treatment as above, the cover slip was immediately removed and inverted over 1 drop of media for imaging, or the cells were incubated for 1 h prior to removal of the cover slip and imaging. Imaging was conducted on an Axioplan2 fluorescent microscope (Zeiss) and the same fields were imaged with phase contrast illumination, in the rhodamine fluorescence channel (λex=BP 450/12, λem=LP 590 nm filter set), and in the fluorescein fluorescent channel (λex=BP 546/90, λem=LP 515 nm filter set). IV was also mixed with PI and then delivered to SK-OV-3 cells, and the cells were imaged as before. In one protocol, equal amounts of IV (15.0 mM in DMSO) and PI (15.0 mM in DMSO) were combined and the resulting solution was added to cells via the mixing chamber. In a second method, PI was taken up in the ITG solution (0.748 mM) and mixed with IV (7.48 mM in DMSO) in the mixing chamber. Similarly, V (15 mM and 30 mM in DMSO) was mixed with PI and delivered to Hepa 1-6 and SK-OV-3 cells using the second method. The cells were imaged as before following 30 sec-4 min exposure to the drug solution.

[5] = Trypan blue assay for membrane disruption; assay type: cell-based
Hepa 1-6 = test: Uptake of PI mixed with hydrophobic derivative (membrane damage test), Hepa 1-6; assay type: cell-based, mouse; conditions: compared to PI alone
Method: as §6

[6] = system: MC38 (mouse colon carcinoma); test: WST cytotoxicity assay, MC38; assay type: cell-based; conditions: MC38, 4 min drug exposure, WST 48 h after
Method: as §4, with “For testing with MC38 cells, the amounts of WST-1 and PMS were doubled.” left out, “Data represents the mean A438 values of 16 wells with standard deviation, corrected for media contribution, and normalized against cells in media with no drug/prodrug treatment (reported as % cell viability±standard deviation).” left out

[7] = system: Hepa 1-6 (mouse hepatoma); test: WST cytotoxicity assay, Hepa 1-6; assay type: cell-based
Method: as §4, §5

[8] = Analysis of prodrug lability (rate of hydrolysis) of PI derivatives by fluorescent spectroscopy; assay type: physicochemical; conditions: extrapolated to pure buffer (100 mol % H2O)
Method: as §2
To solutions of PI and RRH-prodrugs of PI (7.48 μM in DMSO) were added various amounts of buffer (25 μL, 50 μL, and 100 μL of 20 mM Hepes buffer) at different pH. Upon cleavage of the hydrophobic modification and regeneration of PI, the fluorescence of the solution increased (λex=493 nm, λem=647 nm, excitation and emission slit width=5 nm, and emission PMT=600V) and was assayed as a function of time (20 min).
as §3

[9] = system: SK-OV-3 (human ovarian carcinoma) cells; test: In vitro cellular uptake by fluorescence microscopy, SK-OV-3; assay type: cell-based; conditions: fluorescein channel
Method: In Vitro cellular uptake of PI, RRH-PI compounds, and IV evaluated by fluorescence measurements. […] Adherent cells were plated at 2.5×10^5 cells/well on 6-well plates 24 h prior to testing. The growth media was removed from individual wells and the drug/prodrug was immediately added to the well with the mixing chamber. […] After 30 sec the drug solution was removed (aspirated) and 2 ml complete media was added to the cells. Experiments conducted with prodrug that was hydrolyzed prior to application to the cells followed a similar protocol, however the combined solution obtained after passing through the mixing chamber was collected and allowed to sit at ambient temperature for 5 min prior to application on the cells. Experiments conducted with Calcein AM (Invitrogen, 100 μl of 20 μM solution in complete media) followed a similar protocol for drug treatment (4 min treatment). Experiments conducted with SYTOX Green (Invitrogen) followed a similar protocol for drug treatment. […] Each condition was repeated in 2 or 3 wells, and the cells were immediately examined by microscopy. Fluorescent microscopy studies were conducted with a three laser LSM 510 confocal microscope, an Axiovert S100 fluorescent microscope, or an Axioplan2 fluorescent microscope (all Zeiss) equipped with filter sets for the rhodamine fluorescence channel (λex=BP 450/12, λem=LP 590 nm filter set) and the fluorescein fluorescent channel (λex=BP 546/90, λem=LP 515 nm filter set). Imaging was performed with an AxioCam digital camera (Zeiss), with AxioVision imaging software (V 4.5, Zeiss). For all images, identical camera settings and exposure times were used on comparative sample and control images. Images were processed with Photoshop (Adobe) for level and brightness using identical settings between sample and control images. For experiments conducted with IV, the cells were plated on 6-well plates with cover slips. […] Imaging was conducted on an Axioplan2 fluorescent microscope (Zeiss) and the same fields were imaged with phase contrast illumination, in the rhodamine fluorescence channel (λex=BP 450/12, λem=LP 590 nm filter set), and in the fluorescein fluorescent channel (λex=BP 546/90, λem=LP 515 nm filter set). IV was also mixed with PI and then delivered to SK-OV-3 cells, and the cells were imaged as before. In one protocol, equal amounts of IV (15.0 mM in DMSO) and PI (15.0 mM in DMSO) were combined and the resulting solution was added to cells via the mixing chamber. In a second method, PI was taken up in the ITG solution (0.748 mM) and mixed with IV (7.48 mM in DMSO) in the mixing chamber. […] The cells were imaged as before following 30 sec-4 min exposure to the drug solution.

[10] = Qualitative 90° light scattering for particles; assay type: physicochemical; conditions: relative to ITG or PI in ITG
Method: as §1

[11] = SK-OV-3, 4 min drug exposure, WST 48 h after, read-out: Mean IC50
[12] = Hepa 1-6, 4 min drug exposure, WST 48 h after, read-out: Mean IC50

CCCCCCCCCCCCCCCCCC[Si](C)(C)N.CCCCCCCCCCCCCCCCCC[Si](C)(C)N.[Cl][Pt][Cl] [BDMODS-CP, Cl2Pt(NH2Si(CH3)2C18H37)2]
antiproliferative/cytotoxic effect (RLU) [1]: complete cytotoxic effect

CCCCCCCCCCCCNC(=O)CCC(=CCC(=O)O)C(=O)NC(Cc1ccc(N(CCCl)CCCl)cc1)C(=O)O (centres unmarked) [V, 3,9-diaza, 2-[4-{bis(2-chloroethyl)amino}phenylmethyl], 5-(2-carboxylethylidine), 4,8-dioxo uncosanoic acid]
range of particle sizes [2]: 36-66 nm
size of the most abundant particle [2]: 36 nm
k [3]: (1.62 min^−1)
Half-life [3]: 28 s
Half-life ([3]; listed as C12PMMA-Melphalan (V)): 25.7 s
IC50 [4, 11]: 384 µM
nuclear PI staining when delivered together with PI (SK-OV-3 cells): no increased levels of nuclear PI staining were observed
generalized membrane disruption [5]: neither V or methyl aniline silylated with chloro(dimethyl)octadecylsilane caused generalized membrane disruption
nuclear PI staining when delivered together with PI (Hepa 1-6): no increased levels of nuclear PI staining were observed
IC50 [6]: 304 µM
IC50 [7, 12]: 330 µM

N[C@@H](Cc1ccc(N(CCCl)CCCl)cc1)C(=O)O [Melphalan, reference compound]
viability at 1458 µM ([4]; Homo sapiens, SK-OV-3, 48 h, read-out: cell viability at highest concentration tested, SK-OV-3, 48 h, 1458 μM): 70 ± 11%
IC50 ([4]; Homo sapiens, SK-OV-3, read-out: Mean IC50): > 1460 µM
IC50 ([6]; Mus musculus, MC-38): 1180 µM
viability at 1458 µM ([7]; Mus musculus, Hepa1-6, 48 h, read-out: cell viability at highest concentration tested, Hepa 1-6, 48 h, 1458 μM): 81%
IC50 ([7]; Mus musculus, Hepa1-6, read-out: Mean IC50): > 1460 µM

CCCCCCCCCCCC(=O)Nc1ccc2c(c1)c(-c1ccccc1)[n+](CCC[N+](C)(CC)CC)c1cc(NC(=O)CCCCCCCCCCC)ccc21.[I-].[I-] [IV, 3,8-bis-undecylcarbanylamino 5-(3,3-diethyl-3-methylammoniumpropyl) 6-phenyl phenanthridinium diiodide]
range of particle sizes [2]: 28-42 nm
size of the most abundant particle [2]: 36 nm
Half-life ([8]; pH 7.2): non-labile
Half-life ([8]; pH 8.5): non-labile
IC50 ([4]; SK-OV-3, 4 min drug exposure, WST 24 h after, read-out: Mean IC50): 455 µM
IC50 [4, 11]: 342 µM
nuclear PI staining when delivered together with PI (SK-OV-3 cells): no increased levels of nuclear PI staining detected
fluorescent signal localisation ([9]; after one hour incubation): more defined punctate signal
fluorescent signal localisation ([9]; immediately following application): diffuse signal was observed along the cell membrane
increase in 90° light scattering signal intensity [10]: 15 fold
IC50 ([7]; Hepa 1-6, 4 min drug exposure, WST 24 h after, read-out: Mean IC50): 585 µM
IC50 [7, 12]: 429 µM
